Measurements as given in patent US20250304537A1 (Repare Therapeutics Inc., priority 2022, published 2025).
Like-named read-outs stand apart in the source and are kept apart here.

System: PKMYT1 (CDK1 pThr14) in FUOV1 cells
Experiment: PKMYT1 cell-based activity assay, CDK1 pThr14 AlphaLISA in FUOV1 cells
Details: read-out: FUOV-1 CDK1 pThr14 IC50
Procedure: To determine compound IC50 (PKMYT1 cell-based activity assay, CDK1 pThr14 AlphaLISA), FUOV1 cells were plated into a 96-well TC-treated culture plate at 50000 cells/well in a final volume of 100 μL of media. The plates were then allowed to equilibrate in a biological safety cabinet for 30 minutes before being placed in a humidified incubator at 37 C and 5% CO2 overnight. The next day, 2 μL of PKMYT1 inhibitors or DMSO were diluted in 400 μL of warmed culture media in a 96-well block using a Biomek FX liquid handler. Compounds were mixed in media and then 25 μL was dispensed into each well of the 96-well cell plate. Plates were centrifuged at 300 g for 10 seconds and then placed in the incubator for 2 hours. After the 2-hour incubation with compound, media was removed via aspiration using a multichannel pipette. 30 μL of 1× AlphaLISA lysis buffer (Perkin Elmer) supplemented with protease and phosphatase inhibitors as well as 1 mM PMSF, was added to each well. Plates were rotated at 500 g for 20 minutes to facilitate lysis. Plates were then sealed with aluminum foil and frozen at −80° C. for at least 1 hour. Lysates were thawed at 37° C. for 10 minutes, then 10 μL of each lysate was transferred in duplicate to a white 384-well assay plate. Antibody mixture was prepared in 1× AlphaLISA assay buffer (Perkin Elmer) containing antibodies (5 nM final concentration for rabbit pThr14-CDK1 from Abcam #ab58509 and mouse total CDK1 from ThermoFisher Scientific #33-1800). 5 μL of antibody mixture was added to each well of the assay plate. The assay plate was sealed and stored at 4° C. overnight. The next day, AlphaLISA bead mixture (Perkin Elmer) was prepared in 1× AlphaLISA assay buffer. Anti-rabbit IgG Acceptor (Perkin Elmer #AL104C) and anti-mouse IgG Donor beads (Perkin Elmer #AS104D) were prepared to a concentration of 80 μg/ml in assay buffer. 5 μL of bead mixture was added to each well of the assay plate (20 μg/ml final concentration for each bead). The plate was protected from light and incubated for 2 hours at room temperature. After a 2-hour incubation with beads, the plate was read using the Perkin Elmer EnVision Multimode plate reader with excitation at 680 nm and emission at 615 nm.

Compound	IC50 (2 h, 2 hours with compound) [nM]	IC50 (2 h, 2 h compound incubation) [nM]	also measured
NC(=O)c1nc(-c2cccnc2NC2CC2)nc(-c2cccc3[nH]ncc23)c1N [Compound 932]	469	–	–
Cc1ccc(F)nc1Nc1ncccc1-c1nc(C(N)=O)c(N)c(-c2c(C)ccc3[nH]ncc23)n1 [Compound 724]	–	13	–
Cc1c(F)cc2[nH]ncc2c1-c1nc(-c2cc(F)cnc2NCC(C)(C)C#N)nc(C(N)=O)c1N [Compound 859]	41	–	–
Cc1ccc2[nH]ncc2c1-c1nc(-c2cc(F)cnc2NCC2(O)CCC2)nc(C(N)=O)c1N [Compound 691]	–	228	–
Cc1cc(F)c2[nH]ncc2c1-c1nc(-c2ccc(F)nc2Nc2ncccc2C(F)F)nc(C(N)=O)c1N [Compound 878]	36	–	–
CO[C@H]1C[C@@H](Nc2ncccc2-c2nc(C(N)=O)c(N)c(-c3c(C)ccc4[nH]ncc34)n2)C1 [Compound 548]	–	227	–
Cc1ccncc1Nc1cc(F)ccc1-c1nc(C(N)=O)c(N)c(-c2c(C)ccc3[nH]ncc23)n1 [Compound 664]	–	41	–
Cc1ccc2[nH]ncc2c1-c1nc(-c2cccnc2Nc2ccccc2Cl)nc(C(N)=O)c1N [Compound 629]	–	160	–
Cc1ccc2[nH]ncc2c1-c1nc(-c2cc(F)cnc2NC2CC2)nc(C(N)=O)c1N [Compound 680]	–	14	–
Cc1ccc2[nH]ncc2c1-c1nc(-c2ccc(F)nc2Nc2ncccc2F)nc(C(N)=O)c1N [Compound 929]	7	–	–
Cc1ccc2[nH]ncc2c1-c1nc(-c2cc(Cl)ncc2Nc2ncccn2)nc(C(N)=O)c1N [Compound 955, 5-amino-2-(2-chloro-5-(pyrimidin-2-ylamino)pyridin-4-yl)-6-(5-methyl-1H-indazol-4-yl)pyrimidine-4-carboxamide]	51	–	–
Cc1ccc2[nH]ncc2c1-c1nc(-c2cccnc2NC[C@@H]2CCCO2)nc(C(N)=O)c1N [Compound 670]	–	198	–
Cc1ccc2[nH]ncc2c1-c1nc(-c2ccc(F)cc2N[C@H]2C[C@@](C)(O)C2)nc(C(N)=O)c1N [Compound 862]	121	–	–
Cc1ccc2[nH]ncc2c1-c1nc(-c2cc(F)cnc2N[C@@H]2C[C@@H]3CC[C@H]2O3)nc(C(N)=O)c1N [Compound 890]	–	–	IC50 (2 hours with compound): 81 nM
Cc1ccc2[nH]ncc2c1-c1nc(-c2cc(F)cnc2N[C@H]2CC[C@H](O)C2)nc(C(N)=O)c1N [Compound 812]	26	–	–
Cc1ccc2[nH]ncc2c1-c1nc(-c2cc(F)cnc2N[C@H]2C[C@@](C)(O)C2)nc(C(N)=O)c1N [Compound 733, 5-amino-2-(5-fluoro-2-(((1s,3s)-3-hydroxy-3-methylcyclobutyl)amino)pyridin-3-yl)-6-(5-methyl-1H-indazol-4-yl)pyrimidine-4-carboxamide]	–	48	–
[2H]C([2H])([2H])c1ccc2[nH]ncc2c1-c1nc(-c2ccc(Cl)nc2Nc2nccnc2F)nc(C(N)=O)c1N [Compound 966]	11	–	–
Cc1ccc2[nH]ncc2c1-c1nc(-c2cccnc2Nc2cccc(C#N)c2)nc(C(N)=O)c1N [Compound 630]	–	150	–
Cc1ccc2[nH]ncc2c1-c1nc(-c2cccnc2NC(C)C)cc(C(N)=O)c1N [Compound 866, 5-amino-2′-(isopropylamino)-6-(5-methyl-1H-indazol-4-yl)-[2,3′-bipyridine]-4-carboxamide]	62	–	–
Cc1ccc2[nH]ncc2c1-c1nc(-c2ccc(F)cc2NC(=O)C2(C)CCCO2)nc(C(N)=O)c1N (stereo not shown) [Compound 528]	–	118	–
Cc1ccc2[nH]ncc2c1-c1nc(-c2ccc(F)cc2Nc2nccc(C(F)(F)F)n2)nc(C(N)=O)c1N [Compound 572]	–	764	–
Cc1ccc2[nH]ncc2c1-c1nc(-c2ccc(C#N)cc2Nc2ncccc2F)nc(C(N)=O)c1N [Compound 739]	–	9	–
Cc1ccc2[nH]ncc2c1-c1nc(-c2ccc(C#N)nc2Nc2ncccc2F)nc(C(N)=O)c1N [Compound 746]	–	11	–
CCc1ccccc1-c1nc(C(N)=O)c(N)c(-c2c(C)ccc3[nH]ncc23)n1 [Compound 778]	–	1260	–
NC(=O)c1nc(-c2cc(F)ccc2Nc2ncc(F)cn2)nc(-c2c(Cl)ccc3[nH]ncc23)c1N [Compound 554]	–	138	–
